Results from the supplement of paper PMC13380429.

Key:
Details in all cases: 72 h
[1] = test system: Caco-2; assay: cell viability relative to DMSO; higher = less toxic
[2] = test system: Calu-3; assay: as above
[3] = test system: HepG2; assay: as above
[4] = test system: U2OS; assay: as above
[5] = test system: Vero E6; assay: as above
[6] = test system: Caco-2; assay: relative viability EC50 (midpoint between 100% and the lowest measured viability); higher = less toxic
[7] = test system: Calu-3; assay: as above
[8] = test system: HepG2; assay: as above
[9] = test system: U2OS; assay: as above
[10] = test system: Vero E6; assay: as above
[11] = test system: Caco-2; assay: drug sensitivity score (DSS) for viability; higher = more toxic; extreme values may be limits of the assay
[12] = test system: Calu-3; assay: as above
[13] = test system: HepG2; assay: as above
[14] = test system: U2OS; assay: as above
[15] = test system: Vero E6; assay: as above

Structure (SMILES) | cell viability ([1]; 1 nM) [%] | cell viability ([1]; 10 nM) [%] | cell viability ([1]; 100 nM) [%] | cell viability ([1]; 1000 nM) [%] | cell viability ([1]; 10000 nM) [%] | cell viability ([2]; 1 nM) [%] | cell viability ([2]; 10 nM) [%] | cell viability ([2]; 100 nM) [%] | cell viability ([2]; 1000 nM) [%] | cell viability ([2]; 10000 nM) [%] | cell viability ([3]; 1 nM) [%] | cell viability ([3]; 10 nM) [%] | cell viability ([3]; 100 nM) [%] | cell viability ([3]; 1000 nM) [%] | cell viability ([3]; 10000 nM) [%] | cell viability ([4]; 1 nM) [%] | cell viability ([4]; 10 nM) [%] | cell viability ([4]; 100 nM) [%] | cell viability ([4]; 1000 nM) [%] | cell viability ([4]; 10000 nM) [%] | cell viability ([5]; 1 nM) [%] | cell viability ([5]; 10 nM) [%] | cell viability ([5]; 100 nM) [%] | cell viability ([5]; 1000 nM) [%] | cell viability ([5]; 10000 nM) [%] | relative viability EC50 [6] [µM] | relative viability EC50 [7] [µM] | relative viability EC50 [8] [µM] | relative viability EC50 [9] [µM] | relative viability EC50 [10] [µM] | drug sensitivity score [11] | drug sensitivity score [12] | drug sensitivity score [13] | drug sensitivity score [14] | drug sensitivity score [15]
C=CC(N)CCC(=O)O (stereo not given) [vigabatrin] | 93.7 | 96.1 | 101 | 98.1 | 93.2 | 103 | 105 | 99 | 102 | 106 | 100 | 89.6 | 113 | 96.1 | 104 | 95.9 | 103 | 96.8 | 99.4 | 91.7 | 96.5 | 93.8 | 101 | 88.4 | 97.1 | > 10 | > 10 | > 10 | > 10 | > 10 | 0 | 0 | 0 | 0 | 0
CC(=O)N1CC[N+](C)(C)CC1 [4-acetyl-1,1-dimethylpiperazinium] | 100 | 100 | 98.7 | 98.2 | 97.9 | 102 | 101 | 97 | 102 | 88.6 | 93.6 | 109 | 111 | 97.9 | 91.2 | 101 | 100 | 97.5 | 102 | 95 | 100 | 111 | 106 | 96.8 | 101 | > 10 | > 10 | > 10 | > 10 | > 10 | 0 | 0 | 0 | 0 | 0
O=C1OC(CN2CCOCC2)CN1/N=C/c1ccc([N+](=O)[O-])o1 (stereo not given) [furaltadone] | 96.5 | 87 | 79.7 | 99.8 | 82.3 | 95.7 | 93.6 | 94.4 | 103 | 104 | 96.4 | 93.3 | 92.8 | 81.7 | 82.5 | 99.8 | 99.3 | 95.4 | 106 | 95.1 | 108 | 94 | 103 | 109 | 102 | > 10 | > 10 | > 10 | > 10 | > 10 | 0 | 0 | 2.1 | 0 | 0
O=C(NCCN1CCN(c2ncccn2)CC1)C12CC3CC(CC(C3)C1)C2 [adatanserin] | 92 | 114 | 94.7 | 102 | 88.5 | 101 | 96.5 | 107 | 86.8 | 101 | 102 | 98 | 88.5 | 90.7 | 90.9 | 94.9 | 94.2 | 97.8 | 96.9 | 97.4 | 99.5 | 97.9 | 101 | 99.4 | 104 | > 10 | > 10 | > 10 | > 10 | > 10 | 0 | 0 | 0.9 | 0 | 0
O=C(O)CCCc1c[nH]c2ccccc12 [3-indolebutyric-acid] | 99.4 | 88.5 | 89.6 | 92.5 | 91.7 | 99.6 | 100 | 97.7 | 100 | 99.3 | 98.3 | 99.4 | 92.8 | 87.9 | 101 | 102 | 102 | 101 | 95 | 99.9 | 102 | 101 | 101 | 97.2 | 94.2 | > 10 | > 10 | > 10 | > 10 | > 10 | 1.2 | 0 | 0 | 0 | 0
Cc1nnsc1C(=O)Nc1ccc(-n2nc(C(F)(F)F)cc2C(F)(F)F)cc1 | 93.4 | 83.8 | 105 | 87.2 | 85.1 | 101 | 98.4 | 95.2 | 104 | 99.9 | 94.5 | 98.8 | 105 | 107 | 90.9 | 99.9 | 97.9 | 100 | 100 | 99.1 | 95.9 | 96.2 | 94.7 | 97.8 | 95.6 | > 10 | > 10 | > 10 | > 10 | > 10 | 0.2 | 0 | 0 | 0 | 0
CCc1nc2ccc(Cl)cn2c1C(=O)NCc1ccc(N2CCC(c3ccc(OC(F)(F)F)cc3)CC2)cc1 [Q-203] | 97.3 | 95.9 | 97.1 | 93.5 | 85.3 | 99.7 | 100 | 104 | 99.6 | 104 | 106 | 108 | 92.1 | 100 | 86.8 | 98.6 | 101 | 97.8 | 97.4 | 99.8 | 107 | 100 | 99.9 | 98.8 | 96.5 | > 10 | > 10 | > 10 | > 10 | > 10 | 0.1 | 0 | 0.1 | 0 | 0
